Read-outs that look alike come from different tables or passages of the source.
What was measured:
[1] = system: MDA-MB-231 solid tumor xenografts; format: in vivo
Method: MDA-MB-231 cells were subcutaneously injected into the shoulders of NSG mice (Jackson Laboratory) to establish solid tumor xenografts. When tumor volume reached around 50-100 mm^3, anti-FITC CAR T cells (15×10^6 cells) were intravenously introduced into tumor-bearing mice. Twenty NSG mice were divided into four study groups (5 animals in each group). The first group was treated with anti-FITC CAR T cells with phosphate-buffered saline (PBS) as a negative control. The second, third, and fourth groups were treated with anti-FITC CAR T cells with FITC-Folate (500 nmole/kg) every other day. Once a significant toxicity (e.g. serious loss of body weight) was detected, these groups were treated with either: continued FITC-Folate administration (second group); discontinuation of FITC-Folate administration until the mice recovered (third group); or a mixture of 100-fold excess of EC0923 (i.e. free folate) and FITC-Folate until the mice recovered (fourth group). The body weight was measured regularly to monitor toxicity. In addition, the blood concentration of interferon (IFN)-gamma for each treatment group was measured to monitor the degree of anti-FITC CAR T activation. Finally, tumor volume was measured to identify anti-tumor efficacy in each treatment group.

MDA-MB-231 tumors = experiment: EC17 pre-painting combined with delayed second EC17 dose (Example 30); format: in vivo, mice
Method: FITC-CAR-T related toxicity (e.g. sCRS) can be reduced by the combination of EC17 pre-painting and the delay of EC17 dosing post CAR-T administration. To explore strategies to control therapy-related toxicity, the combination of the EC17 pre-painting and EC17 dosing schedule optimization was evaluated. Mice bearing MDA-MB-231 tumors (100-200 mm3) were divided into three groups. Mice in group #1 (no EC17 pre-painting) were administered with 8 million FITC-CAR-T cells through the tail vein, and 500 nmol/kg EC17 was then dosed as a single dose per week (at days 2, 9, 16, etc.) post CAR-T administration. Mice in group #2 (EC17 4 hour pre-painting) were pre-painted with 500 nmol/kg EC17 4 hours before the administration of 8 million CAR-T cells, and 500 nmol/kg EC17 was then dosed as a single dose per week post CAR-T administration. Mice in group #3 (EC17 4 hour pre-painting+delayed second EC17 dose) were also pre-painted with 500 nmol/kg EC17 4 hours before the administration of 8 million CAR-T cells, but the second dose of 500 nmol/kg EC17 was postponed until 7 days after CAR-T administration, and the single dose per week schedule of EC17 dosing was then followed. Three days after CAR-T administration, mice in the three groups were evaluated by visual observation.

FR+ HEK-FRa xenografts = experiment: FITC-CAR-T proliferation in HEK-FRa s.c. xenograft model (Example 37); format: in vivo, mice; settings: 500 nmol/kg three times per week
Method: The evaluation of FITC-CAR-T proliferation and related toxicity in both naïve mice and mice bearing FR+ tumor xenografts was tested. To evaluate whether FITC-CAR-T proliferation in vivo is dependent on the co-existence of the bridge (e.g. EC17) and the tumor antigen (e.g. folate receptor), FITC-CAR-T proliferation in vivo was compared in naïve mice and mice bearing FR+ tumor xenografts, either with or without EC17. 5-8 million CAR-T cells (as indicated in FIGS. 42 and 43) were administered (i.v.) into naïve mice without tumors and mice bearing FR+ tumor xenografts (80-200 mm3). 500 nmol/kg EC17 was dosed 4 hours before and three times per week post CAR-T administration, if desired. Mice were monitored for body weight changes and CAR-T cell count in blood circulation; some mice were also euthanized weekly to evaluate organs. […] CAR-T cell count in blood samples was also compared to evaluate CAR-T proliferation. […] Since the enlargement of spleen size is another indicator for CAR-T proliferation in vivo, spleen size was also measured as shown in FIG. 43B.
For FIG. 42, the MDA-MB-231 s.c. model was used. For FIG. 43A, the HEK-FRa s.c. xenograft model was used. For FIG. 43B, the MDA-MB-231 s.c. model was used.

KB cells = experiment: Anti-fluorescein CAR T cell activity against KB cells in vitro (Example 43); format: cell-based; settings: CAR T:KB 10 to 1
Method: FR positive cancer cell lines (e.g. KB or MDA-MB-231 cells) were seeded at density of 10^4 cells/100 μl media into 96 well plates and grown overnight. Anti-fluorescein CAR T cells were added to each well in the absence or presence of bridge molecules. After co-incubation for 6-24 hours, plates were centrifuged at 350×g for 10 min to remove debris and supernatants were analyzed for lactate dehydrogenase release (cell death analysis) using Pierce™ LDH cytotoxicity assay kit (Thermo Fisher Scientific, MA) and interferon γ (IFNγ) levels using human IFNγ ELISA kit (Biolegend, CA), while pellets were either evaluated for CAR T cell activation by staining with anti-human CD69 APC (Clone: FN50, Biolegend, CA) or examined for CAR T cell proliferation by culturing for 5 days in TexMACS™ medium (Miltenyi Biotech Inc, CA) containing 1% penicillin and streptomycin sulfate and quantitating by flow cytometry using the intrinsic GFP fluorescence and staining with anti-human CD3 APC antibody (Clone:HIT3a, Biolegend, CA).

Question: With Nc1nc2ncc(CNc3ccc(C(=O)NC(CCC(=O)NCCNC(=S)Nc4ccc(-c5c6ccc(=O)cc-6oc6cc(O)ccc56)c(C(=O)O)c4)C(=O)O)cc3)nc2c(=O)[nH]1 (stereo not drawn) [EC17, FITC-Folate] as the compound, how does the IFN-gamma blood concentration ([1]; break group) read?
Answer: decreased

Question: What about the complete response ([1]; break group) of the same compound?
Answer: 100%

Question: What about the IFN-gamma blood concentration ([1]; continued dose group) of the same compound?
Answer: a significant amount IFN-gamma was detected

Question: And the “survival of mice at the first week of treatment” value ([1]; continued dose group)?
Answer: 40%

Question: And the tumor response ([1]; continued dose group)?
Answer: delay of tumor growth

Question: And the anti-tumor outcome (MDA-MB-231 tumors; all three groups)?
Answer: complete responses

Question: And the “sCRS by visual observation” value (MDA-MB-231 tumors; group #1 no pre-painting, three days after CAR-T)?
Answer: the worst sCRS

Question: And the “sCRS by visual observation” value (MDA-MB-231 tumors; group #2 EC17 4 hour pre-painting)?
Answer: sCRS but less severe

Question: And the “sCRS by visual observation” value (MDA-MB-231 tumors; group #3 EC17 4 hour pre-painting + delayed second EC17 dose)?
Answer: didn't show sCRS

Question: What about the FITC-CAR-T proliferation (FR+ HEK-FRa xenografts) of the same compound?
Answer: rapid proliferation

Question: And the IFNγ production (KB cells; 100 nM)?
Answer: induced

Question: What about the “proliferation of anti-fluorescein CAR T cells” value (KB cells) of the same compound?
Answer: induced

From patent publication US11759480B2, “Compositions and methods for CAR T cell therapy” (ENDOCYTE, INC., priority 2017, dated 2023)
